These results are taken from patent US20100227307A1, “ERGOTHIONEINE AND/OR ITS DERIVATIVES AS A CELL PRESERVATIVE” (priority 2007, published 2010).

Assay [1] relates to Stallion named IKE's semen (sperm cells). Kind of assay: Post-thaw motility of frozen stallion semen in five extenders (Sperm Vision analysis). It counts as cell-based. To be noted: ergothioneine added to traditional semen extender compositions. As to the method: The resulting sperm pellet was then split 5 ways and resuspended with the five different extenders tested. DMSO and EQUIPRO® cryoguards were frozen right away. […] Semen was frozen using the ice cube freezer. Semen straws were thawed at 37° C. for 1 minute. Semen was diluted at one to ten in EQUIPRO® concentrate to analyze using sperm vision. All five extenders were measured for motility (total motility and forward progressive motility, FPM) using Sperm Vision® software, a high-resolution, rapid scan digital camera on a plain glass slide. Measurements were taken at 0 min post thaw, 30 min and 60 min post thaw.

A further assay relates to liver tissue of rats. To be noted: exogenous L-ergothioneine; cited from earlier work.
Another assay deals with mouse liver. The note with it: cited from earlier work.

Structures are written as SMILES.

As to `C[N+](C)(C)[C@@H](Cc1c[nH]c(=S)[nH]1)C(=O)[O-]` [ergothioneine, L-ergothioneine], in assay [1], the sperm cell survival entry was “significant improvement” and the surviving cell motility result was “significant improvement”. In addition, in the assay with liver tissue of rats, the “lipid peroxidation by toxic compounds” value is “prevent lipid peroxidation”. Moreover, in the assay with mouse liver, the LPO formation entry is recorded as “inhibited LPO formation” and the “decomposition of existing LPO” value was “enhanced the decomposition of existing LPO”.
